Like-named read-outs stand apart in the source and are kept apart here.
How the values were obtained:
TNF-α [1] = test: In-vitro whole cell assay for TNF-α inhibition (LPS-stimulated PBMC, ELISA); type: cell-based; conditions: TNF-α by ELISA
Method: Freshly obtained venous blood was anticoagulated with heparin, diluted with an equal volume of phosphate buffered saline (“PBS”) and placed in a sterile tube or other container. Aliquots (30 mL) of this mixture were transferred to centrifuge tubes, which were underlaid with Ficoll-Hypaque (15 mL). The prepared tubes were centrifuged at 400×g, without braking, for 30 min at room temperature. Approximately ½ to ⅔ of the platelet layer above the mononuclear cell band was removed with a pipette. The majority of the mononuclear cell layer was carefully removed using a pipette and these PBMC's were diluted with PBS and spun at 600×g for 15 min. The resulting PBMC's were washed with another portion of PBS and spun at 400×g for 10 min at room temperature. The recovered pellets were diluted in low endotoxin RPMI/1% FCS culture medium, and gave a cell concentration of 0.5-2.0×10^6 PMBC/ mL. A small volume of the suspension was removed for counting on a hemocytometer and the remaining preparation was centrifuged at 200×g for 15 min at room temperature. The recovered pelleted PMBC's were resuspended in RPMI/1% FCS to a concentration of 1.67×10^6/mL.
To run the assay, the PBMC suspension (180 μL) was transferred to duplicate wells of a 96-well flat-bottom microtiter plate and incubated for 1 h at 37° C. A solution of test compound (10 μL: prepared at 20× the desired final concentration) was added to each well and the plate was incubated for 1 h at 37° C. A solution (10 μL) of LPS in RPMI/1% FCS (200 ng/mL) was added and the wells were incubated overnight at 37° C. The supernate (100 μL) was removed from each well and diluted with RPMI/1% FCS (400 μL). The samples were analyzed for TNF-α using a commercial ELISA kit (Genzyme).

TNF-α [2] = test: In vivo rodent assay for inhibition of LPS-induced TNF-α production; parameters: species or system Mice (BALB/cJ females); conditions: 10 mg/kg oral; for inhibition in vivo at 10 mg/kg: Mus musculus, po
Method: Mice (BALB/cJ females, Jackson Laboratories) or rats (Lewis males, Charles River) were fasted for 30 min. The animals were dosed orally on a mg/kg basis at a range of times prior to being injected intraperitoneally with LPS at 1 mg/kg and returned to their cages for 1 h. Animals were anesthetized by CO2, exsanguinated by cardiac puncture and whole blood collected (0.1-0.7 mL). The blood was allowed to clot and serum was transferred to a centrifuge tube. This sample was centrifuged, and serum was collected, aliquoted and frozen at −80° C. Samples were tested by commercial ELISA's for TNF-α (Endogen for mouse TNF-α and Biosource for rat TNF-α).

[3] = 0.5 h, 0.5 h, read-out: Mouse 10 mg/kg % inhib 0.5 h
[4] = 2 h, 2 h, read-out: Mouse 10 mg/kg % inhib 2 h

SMILES | IC50 (TNF-α [1]) [nM] | inhibition in vivo at 10 mg/kg (TNF-α [2]; [3]) [%] | other results
COC(=O)c1c(-c2ccc(F)cc2)c(-c2ccncc2)c(C2=CCNCC2)n1C [Cpd 7, 3-(4-Fluorophenyl)-1-methyl-4-(4-pyridinyl)-5-(1,2,3,6-tetrahydro-4-pyridinyl)-1H-pyrrole-2-carboxylic acid methyl ester] | 72 | 96 | –
COC(=O)c1c(-c2ccc(F)cc2)c(-c2ccncc2)c(N2CCNCC2)n1C [Cpd 8, 3-(4-Fluorophenyl)-1-methyl-5-(1-piperazinyl)-4-(4-pyridinyl)-1H-pyrrole-2-carboxylic acid methyl ester] | 33 | 73 | –
COC(=O)c1c(-c2ccc(F)cc2)c(-c2ccncc2)c(N2CCN(S(C)(=O)=O)CC2)n1C [Cpd 12, 3-(4-Fluorophenyl)-1-methyl-5-[4-(methylsulfonyl)-1-piperazinyl]-4-(4-pyridinyl)-1H-pyrrole-2-carboxylic acid methyl ester] | 5860 | -29 | –
CCNC(=O)N1CCN(c2c(-c3ccncc3)c(-c3ccc(F)cc3)c(C(=O)OC)n2C)CC1 [Cpd 13, 5-[4-[(Ethylamino)carbonyl]-1-piperazinyl]-3-(4-fluorophenyl)-1-methyl-4-(4-pyridinyl)-1H-pyrrole-2-carboxylic acid methyl ester] | 2920 | -38 | –
COC(=O)c1c(-c2ccc(F)cc2)c(-c2ccncc2)c(/N=C/N(C)C)n1C [Cpd 15] | 5 | 6 | inhibition in vivo at 10 mg/kg (TNF-α [2]; [4]): -21%
CCOC(=O)c1c(-c2ccc(F)cc2)c(-c2ccncc2)c(CCCO)n1C [Cpd 17, 3-(4-Fluorophenyl)-5-(3-hydroxypropyl)-1-methyl-4-(4-pyridinyl)-1H-pyrrole-2-carboxylic acid ethyl ester] | 186 | – | –
CCOC(=O)c1c(-c2ccc(F)cc2)c(-c2ccncc2)c(CCCN2CCOCC2)n1C [Cpd 19, 3-(4-Fluorophenyl)-1-methyl-5-[3-(4-morpholinyl)propyl]-4-(4-pyridinyl)-1H-pyrrole-2-carboxylic acid ethyl ester] | 756 | 34 | –
COC(=O)C1Cn2cc(-c3ccncc3)c(-c3ccc(F)cc3)c2C1=O (stereo not drawn) [Cpd 21, 7-(4-Fluorophenyl)-2,3-dihydro-1-oxo-6-(4-pyridinyl)-1H-pyrrolizine-2-carboxylic acid methyl ester] | 29 | 44.7 | –
O=C1CCn2cc(-c3ccncc3)c(-c3ccc(F)cc3)c21 [Cpd 22, 7-(4-Fluorophenyl)-2,3-dihydro-6-(4-pyridinyl)-1H-pyrrolizin-1-one] | 138 | 63 | inhibition in vivo at 10 mg/kg (TNF-α [2]; [4]): -3%
COC(=O)C1CCn2c(NCCN3CCOCC3)c(-c3ccncc3)c(-c3ccc(F)cc3)c2C1=O (stereo not drawn) [Cpd 23, 1-(4-Fluorophenyl)-5,6,7,8-tetrahydro-3-[[2-(4-morpholinyl)ethyl]amino]-8-oxo-2-(4-pyridinyl)-7-indolizinecarboxylic acid methyl ester] | 77 | 71 | –
COC(=O)CCCn1c(NCCN2CCOCC2)c(-c2ccncc2)c(-c2ccc(F)cc2)c1C(=O)OC [Cpd 23a] | 29 | – | –
O=C1CCCn2c(NCCN3CCOCC3)c(-c3ccncc3)c(-c3ccc(F)cc3)c21 [Cpd 24, 1-(4-Fluorophenyl)-6,7-dihydro-3-[[2-(4-morpholinyl)ethyl]amino]-2-(4-pyridinyl)-8(5H)-indolizinone] | 2560 | 51 | –
OCc1[nH]cc(-c2ccc(F)cc2)c1-c1ccncc1 [Cpd 26, 4-(4-Fluorophenyl)-3-(4-pyridinyl)-1H-pyrrole-2-methanol] | 101 | -72 | –
CON(C)C(=O)c1c(-c2ccc(F)cc2)c(-c2ccncc2)cn1C [Cpd 37, 3-(4-Fluorophenyl)-N-methoxy-N,1-dimethyl-4-(4-pyridinyl)-1H-pyrrole-2-carboxamide] | 5840 | – | –
CC(=O)c1c(-c2ccc(F)cc2)c(-c2ccncc2)cn1C [Cpd 39, 1-[3-(4-Fluorophenyl)-1-methyl-4-(4-pyridinyl)-1H-pyrrol-2-yl]ethanone] | 597 | – | –
CC(O)c1c(-c2ccc(F)cc2)c(-c2ccncc2)cn1C (stereo not drawn) [Cpd 40, 3-(4-Fluorophenyl)-[…], 1-dimethyl-4-(4-pyridinyl)-1H-pyrrole-2-methanol] | 1450 | – | –
O=C1OCCn2cc(-c3ccncc3)c(-c3ccc(F)cc3)c21 [Cpd 46, 8-(4-Fluorophenyl)-3,4-dihydro-7-(4-pyridinyl)-1H-pyrrolo[2,1-c][1,4]oxazin-1-one] | 160 | – | –
CCCc1c(-c2ccnc(N[C@@H](C)c3ccccc3)n2)c(-c2ccc(F)cc2)cn1C(=O)OC(C)(C)C [Cpd 49] | – | -79 | –
COC(=O)c1c(-c2ccc(F)cc2)c(-c2ccncc2)c(N2CCC(NC(=O)OC(C)(C)C)C2)n1C (stereo not drawn) [Cpd 110] | 1660 | – | –
Cn1c(C(O)c2ccccc2)c(-c2ccc(F)cc2)c(-c2ccncc2)c1N1CCNCC1 (stereo not drawn) [Cpd 117] | 660 | – | –
COC(=O)c1c(-c2ccc(F)cc2)c(-c2ccncc2)c(NCCN2CCCC2)n1C [Cpd 118] | 1390 | – | –
COC(=O)c1c(-c2ccc(F)cc2)c(-c2ccncc2)c(NC2CCN(Cc3ccccc3)CC2)n1C [Cpd 120] | 1310 | – | –
CCCCNCc1c(-c2ccncc2)c(-c2ccc(F)cc2)cn1C [Cpd 123] | 1080 | – | –
COC(=O)c1c(-c2ccc(F)cc2)c(-c2ccncc2)c(N2CCN(C(C)C)CC2)n1C [Cpd 126] | 1980 | – | –

SMILES | IC50 (TNF-α [1]) [nM] | inhibition in vivo at 10 mg/kg (TNF-α [2]; [3]) [%] | other results
CCCN1CCN(c2c(-c3ccncc3)c(-c3ccc(F)cc3)c(C(=O)OC)n2C)CC1 [Cpd 127] | 901 | – | –
COC(=O)c1c(-c2ccc(F)cc2)c(-c2ccncc2)c(N2CCN(CC3CCCCC3)CC2)n1C [Cpd 130] | 573 | – | –
COC(=O)c1c(-c2ccc(F)cc2)c(-c2ccncc2)c(NCCNC(=O)OC(C)(C)C)n1C [Cpd 132] | 1640 | – | –
COC(=O)c1c(-c2ccc(F)cc2)c(-c2ccncc2)c(NCCNC(C)=O)n1C [Cpd 135] | 1690 | – | –
COC(=O)C1CCn2c(I)c(-c3ccncc3)c(-c3ccc(F)cc3)c2C1=O (stereo not drawn) [Cpd 136] | – | 15 | –
COC(=O)c1c(-c2ccc(F)cc2)c(-c2ccncc2)c(-c2ccncc2)n1C [Cpd 137] | – | 51 | –
COC(=O)c1c(-c2ccc(F)cc2)c(-c2ccncc2)c(NCCN2CCNCC2)n1C [Cpd 140] | – | 77 | –
COC(=O)c1c(-c2ccc(F)cc2)c(-c2ccncc2)c(NC(C)=O)n1C [Cpd 142] | 1490 | – | –
COC(=O)c1c(-c2ccc(F)cc2)c(-c2ccncc2)cn1CCN(C)C [Cpd 146] | – | -32 | –
COC(=O)c1c(-c2ccc(F)cc2)c(-c2ccncc2)c(NCCCN2CCOCC2)n1C [Cpd 149] | – | 64 | –
COC(=O)CCn1c(C#CCCO)c(-c2ccncc2)c(-c2ccc(F)cc2)c1C(=O)OC [Cpd 150] | 5280 | – | –
Cn1c(CO)c(-c2ccc(F)cc2)c(-c2ccncc2)c1N1CCN(C(=O)OC(C)(C)C)CC1 [Cpd 151] | – | 83 | –
CCCn1c(NCCN2CCOCC2)c(-c2ccncc2)c(-c2ccc(F)cc2)c1C(=O)OC [Cpd 153] | 589 | – | –
COC(=O)c1c(-c2ccc(F)cc2)c(-c2ccncc2)c(NCCc2ccncc2)n1C [Cpd 154] | 145 | – | –
CC(=O)N1CCN(c2c(-c3ccncc3)c(-c3ccc(F)cc3)c(-c3nnco3)n2C)CC1 [Cpd 157] | – | 19 | –
N#Cc1[nH]cc(-c2ccncc2)c1-c1ccc(F)cc1 [Cpd 158] | 47 | – | –
COC(=O)c1c(-c2ccc(F)cc2)c(-c2ccncc2)c(N(C)CCN2CCSCC2)n1C [Cpd 162] | 183 | – | –
COC(=O)c1c(-c2ccncc2)c(-c2ccc(F)cc2)c(N(C)CCN2CCOCC2)n1C [Cpd 164] | 3510 | – | –
COC(=O)c1c(-c2ccc(F)cc2)c(-c2ccncc2)cn1CCO [Cpd 165] | 692 | – | –
COC(=O)c1c(-c2ccc(F)cc2)c(-c2ccncc2)c(Nc2ccc3c(c2)N(C(C)=O)CC3)n1C [Cpd 166] | 650 | – | –
Cn1cc(-c2ccncc2)c(-c2ccc(F)cc2)c1C#N [Cpd 169] | – | – | Mouse 10 mg/kg % inhib 2 h (TNF-α [2]; 2 h, 10 mg/kg): 49%
Cn1c(C#N)c(-c2ccc(F)cc2)c(-c2ccncc2)c1NCCN1CCOCC1 [Cpd 171] | 351 | – | –
COC(=O)c1c(-c2ccc(F)cc2)c(-c2ccncc2)c(Nc2cccc(NC(C)=O)c2)n1C [Cpd 174] | 21 | – | –

Source: US20050043331A1, “Substituted 3-(2,5-disubstituted)pyridyl-4-aryl pyrroles for treating inflammatory diseases” (priority 2002, published 2005)
